In the assay the target is T1, mSult2a2 (Mus musculus, UniProt P50236).
T1 construct: made in house; host or cells: Salmonella typhimurium TA1538 (cytosolic fraction, enzyme not purified)
T1 sequence (P50236 1-285): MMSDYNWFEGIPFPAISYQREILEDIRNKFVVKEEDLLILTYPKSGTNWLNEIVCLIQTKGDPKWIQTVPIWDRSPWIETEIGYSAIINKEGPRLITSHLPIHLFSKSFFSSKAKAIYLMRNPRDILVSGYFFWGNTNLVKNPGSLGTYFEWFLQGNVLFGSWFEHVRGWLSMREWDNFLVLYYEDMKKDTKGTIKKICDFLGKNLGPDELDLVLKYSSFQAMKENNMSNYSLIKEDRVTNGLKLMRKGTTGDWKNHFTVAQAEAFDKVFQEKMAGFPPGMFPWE
The assay is described as follows: HMF sulfoconjugation assay. Type of assay: biochemical. The method, boiled down: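 Read-out: SMF by negative-ion UPLC-MS/MS (m/z 204.9 → 96.0 and → 81.0), external calibration. Reactions used bacterial cytosol with one expressed SULT, HMF at several concentrations, 50 µM PAPS, 37 °C, 30 min, under linear protein and time conditions.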

`O=Cc1ccc(CO)o1` [HMF, 5-Hydroxymethylfurfural] showed a Rate of sulfoconjugation (0.1 mM HMF) of under 0.5 pmol/mg/min, a Rate of sulfoconjugation (1 mM HMF) of 4.4 ± 0.8 pmol/mg/min, a Rate of sulfoconjugation (10 mM HMF) of 32.4 ± 3.2 pmol/mg/min and a Rate of sulfoconjugation (100 mM HMF) of 77.5 ± 11.7 pmol/mg/min.
